Test results taken from US11840531B2, “CDK8/19 inhibitors” (JOINT STOCK COMPANY “BIOCAD”, priority 2018, dated 2023).
pIC50: −log10 of the molar value. Counter-ions that a name gives are not always drawn.

What was measured:
[1] = Stability of the compounds in human blood plasma; format: in vitro ADME; details: pooled human blood plasma, 10 μM, 4 hours at 37° C.
Procedure: To assess the blood plasma stability of the compounds, we used pooled human blood plasma taken from ten healthy donors. The initial candidate solution (10 mM in DMSO) was diluted with pooled blood plasma to a concentration of 10 μm (test solution). The test solution was incubated in a dry block thermostat for 4 hours at 37° C. HPLC with Agilent 1200 liquid chromatography system (Agilent, USA) was employed to determine peak areas of the compounds in test samples, said peak areas corresponding to the initial test time (prior to incubation) and the final test time (after incubation in a dry block thermostat for 4 hours at 37° C.), proteins were preliminarily precipitated with acetonitrile. Chromatographic analysis was performed in a gradient elution regime with a flow rate of 1 mL/min Substance amount in % in a sample after thermostatting was determined.
The stability of the compounds was estimated. The compounds described herein show at least 90% chemical stability, i.e. they are chemically stable in human blood plasma (Table 2).

[2] = Permeability through Caco-2 cell monolayer; format: in vitro ADME; details: human; for Papp A→B at 2 h, 10 μM: Caco-2, A→B, pH 6.5/7.4, 2 hour incubation; for efflux ratio at 2 h, 10 μM: Caco-2, Papp B-A/Papp A-B
Procedure: Estimation of permeability through Caco-2 cell monolayer enables assessment of the ability of the substances to penetrate through biological membranes by means of both active and passive transport.
Intestinal epithelial cells Caco-2 were grown on filter inserts (pore size 0.4 jam, BD Falcon with High Density) for 21 days; monolayer integrity was then checked using Lucifer Yellow (Sigma-Aldrich, USA) according to the standard protocol. In A→B transfer (“intestinal lumen”-“blood stream” transfer), solutions of the test substances in buffer, pH 6.5 (HBSS, 10 mM HEPES, 15 mM glucose) at a concentration of 10 μM were added to the upper chamber; whereas the lower chamber was filled with buffer, pH 7.4 (HBSS, 10 mM HEPES, 15 mM Glucose, 1% BSA). In B→A transfer (“blood stream”-“intestinal lumen” transfer), the upper chamber was filled with buffer, pH 6.5, whereas the solutions of the test substances in buffer, pH 7.4, at a concentration of 10 μM were added to the lower chamber. A highly permeable substance propranolol was used as a control.
After 2 hour incubation at 37° C. under an atmosphere containing 5% CO2, the amounts of the test substances in the upper and lower chambers were measured by HPLC using an Agilent1200 HPLC system (Agilent, USA), proteins were preliminarily precipitated with acetonitrile. Chromatographic analysis was performed in a gradient elution regime with a flow rate of 1 mL/min. The peak areas corresponding to the compounds were detected on chromatograms. Based on the peak areas of a compound in the calibration standards, concentration of the compound in the initial solution and in the samples from upper chamber wells and lower chamber wells was measured.
Cellular permeability coefficient Papp was calculated by the formula: Papp=(Ca(t)*Va)/(Cd(0)*t*Area), where Papp is the effective permeability constant, m/s V is the volume of solution (0.8 ml in A→B test, 0.2 ml in B→A test), ml Area is the membrane surface area (0.33 cm^2), cm^2 t is the time of incubation (7200 sec), sec Cd(0) is the initial solution concentration, μM Ca(t) is the concentration of the solution after 2 hours (the concentration in the sample from the well of the lower chamber in A→B test; the concentration in the sample from the well of the top chamber in B→A test), μM
The value was calculated by the following formula: efflux=Papp B-A/Papp A-B, where Pape A-B-direct A→B test permeability value Papp B-A-reverse B→A test permeability value

[3] = biological target: CDK8/Cyclin C (Homo sapiens (Human), UniProt P49336); assay: LanthaScreen binding to recombinant CDK8/Cyclin C; details: TR-FRET, Tracer 236 10 nM, CDK8/Cyclin C 5 nM
Chain of CDK8/Cyclin C (P49336 whole entry): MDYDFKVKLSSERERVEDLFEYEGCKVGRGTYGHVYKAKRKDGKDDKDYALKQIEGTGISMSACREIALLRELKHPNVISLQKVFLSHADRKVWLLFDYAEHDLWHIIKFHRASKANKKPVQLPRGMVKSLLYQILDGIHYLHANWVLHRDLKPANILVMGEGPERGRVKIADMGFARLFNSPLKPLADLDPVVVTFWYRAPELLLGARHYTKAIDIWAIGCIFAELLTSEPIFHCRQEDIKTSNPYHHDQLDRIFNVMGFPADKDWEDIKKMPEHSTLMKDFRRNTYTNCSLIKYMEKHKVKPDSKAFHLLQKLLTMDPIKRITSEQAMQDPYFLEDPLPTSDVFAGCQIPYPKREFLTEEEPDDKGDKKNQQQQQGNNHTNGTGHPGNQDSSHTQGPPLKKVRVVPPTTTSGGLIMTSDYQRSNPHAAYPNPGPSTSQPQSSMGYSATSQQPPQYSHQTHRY
Chain of CDK8/Cyclin C (P24863 whole entry partner): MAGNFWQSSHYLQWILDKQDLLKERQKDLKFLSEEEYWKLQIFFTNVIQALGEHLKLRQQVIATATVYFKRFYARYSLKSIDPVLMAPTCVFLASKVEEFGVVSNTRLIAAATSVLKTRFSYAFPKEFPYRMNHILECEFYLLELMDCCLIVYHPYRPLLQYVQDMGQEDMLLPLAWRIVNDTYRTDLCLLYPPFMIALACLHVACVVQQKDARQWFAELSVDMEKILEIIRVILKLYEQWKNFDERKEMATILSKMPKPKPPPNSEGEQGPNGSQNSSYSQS
Procedure: Capability of compounds of the present invention to bind to CDK8 protein was detected using LanthaScreen (ThermoFisher) assay. We detected FRET signal proportional to the amount of CDK8-bound fluorescently-labeled ligand (Tracer 236) that competes with inhibitor for ATP binding site. We carried out the measurements in a 15 μl reaction volume using a 384-well plate (Corning, #CLS4513). Enzyme CDK8/Cyclin C (ThermoFisher, #PR7261B) was mixed with antibodies Anti-His-tag-Biotin (ThermoFisher, #PV6090), Streptavidin-Eu (ThermoFisher, #PV6025), the resulting mixture was added to plate wells (5 MKπ/well). Final concentrations of substances were as follows: CDK8/Cyclin C—5 nM, Streptavidin-Eu—3 nM, Anti-His-tag-Biotin—3 nM. Staurosporine (S4400, Sigma) was used as a reference inhibitor, and 0.1% solution of dimethyl sulphoxide (DMSO) in reaction buffer was used as a blank, the reaction buffer comprised 250 mM HEPES (pH 7.5), 50 mM MgCl2, 5 mM EGTA, and 0.05% Brij-35.
The inhibitors and controls in question were added to corresponding wells (5 μl/well). The plate was incubated at room temperature for 20 minutes. After incubating, 5 μl/well of tracer solution Alexa Fluor-647 (Kinase Tracer 236, ThermoFisher, #PV5592)) was added to the wells. Final concentration of tracer was 10 nM. Reaction buffer, instead of tracer solution, was used as a negative control. The plate was incubated for 40 minutes at 25° C., TR-FRET signal was then measured according to the manufacturer's guidelines on SPARK20 plate reader (Tecan, Switzerland), and the value was converted to the amount of kinase-bound tracer. IC50 values were calculated using SparkControl Magellan 1.2 software (Tecan, Switzerland) approximating experimental points by four-parameter logistic model with the optimization by Levenberg-Marquardt (Table 5).

[4] = system: MV4-11 cells; assay: Antiproliferative activity, MV4-11 cells (AlamarBlue); format: cell-based; details: Homo sapiens, 120 h incubation, read-out: MV-4-11 IC50
Procedure: (§1) Antiproliferative activity of CDK8 inhibitors according to the present invention was measured in a cell-based test on continuous cell cultures MV4-11 (biphenotypic myelomonocytic leukemia, ATCC® CRL-9591™), KG-1 (acute myeloid leukemia, ATCC® CCL-246™) using a vital stain AlamarBlue (ThermoFisher, #DAL1100). The cells were grown in RPMI-1640 (PanEco, #C330p) medium with addition of 10% FBS (Gibco, #16140-071); washed and resuspended in culture medium with 10% FBS (Gibco, #16140-071) in 96-well culture plates (Corning, #3599) with ≈10×10^3 cells in […] of medium per well. The compounds in question were dissolved in DMSO and diluted with a medium with 10% FBS (Gibco, #16140-071) to a final concentration ranging from 0 to 100 μM. […] of diluted compounds were then added to each well (final DMSO concentration was less than 1%) and incubated under 5% CO2 atmosphere at 37° C. for 120 h. After incubating, 15 μL/well of AlamarBlue (ThermoFisher, #DAL1100) reagent was added, contents of plates were mixed in an orbital shaker (Biosan, Latvia) and further incubated for 3-5 h at 37° C. under 5% CO2 atmosphere. Number of living cells was estimated using a microplate spectrophotometer (Tecan Infinite M200Pro, Switzerland) measuring fluorescent signal at the excitation wavelength (λEx) of 540 nm and emission wavelength (λEm) of 590 nm.
(§2) IC50 values were calculated using Magellan 7.2 software (Tecan, Switzerland) approximating experimental points by four-parameter logistic model with the optimization by Levenberg-Marquardt (Table 6).

[5] = system: KG-1 cells; assay: Antiproliferative activity, KG-1 cells (AlamarBlue); format: cell-based; details: 120 h incubation
Procedure: as §1, §2

[6] = General cytotoxicity on HepG2 cells; format: cell-based; details: human, 72 h incubation
Procedure: The CC50 values were determined in the test for General cytotoxicity On HepG2 cells (hepatocellular carcinoma, ATCC® HB-8065™). Cells per well were seeded in 96-well plates (Corning, #3599) at a concentration ≈20×10^3 cells in 100 μL of medium and incubated for 72 h with added compounds within the range of concentrations of 200 to 0.78 μM. Cell viability was assessed using the above method.

Compound | Chemical stability in human blood plasma 4 h, % [1] [%] | Papp A→B at 2 h, 10 μM [2] [×10⁻⁶ cm/s] | efflux ratio at 2 h, 10 μM [2] | pIC50 [3] | pIC50 [4] | pIC50 ([5]; Homo sapiens, KG-1, 120 h) | CC50 at 72 h [6] [nM] | pIC50 ([5]; dihydrochloride)
COCCn1cc(-c2ccc(-c3cnc(N)c4ncc(C(=O)N5CCC5)cc34)cc2)cn1 [Compound 3.54, (8-amino-5-(4-(1-(2-methoxyethyl)-1H-pyrazole-4-yl)phenyl)-1,7-naphthyridin-3-yl) (azetidin-1-yl)methanone] | 94.6 | 42.8 | 0.55 | 8.90 | 7.80 | 7.91 | ~90000 | –
CN1CCN(C(=O)c2cnc3c(N)ncc(-c4ccc(-c5cnn(CC(=O)N(C)C)c5)cc4)c3c2)CC1 [Compound 3.49 × 2HCl, 2-(4-(4-(8-amino-3-(4-methylpiperazine-1-carbonyl)-1,7-naphthyridine-5-yl)phenyl)-1H-pyrazole-1-yl)-N,N-dimethylacetamide dihydrochloride] | – | – | – | 8.79 | – | – | – | 7.80
CN1CCN(C(=O)Cn2cc(-c3ccc(-c4cnc(N)c5ncc(C(=O)NCC6CC6)cc45)cc3)cn2)CC1 [Compound 3.44, 8-amino-N-(cyclopropylmethyl)-5-(4-(1-(2-(4-methylpiperazin-1-yl)-2-oxoethyl)-1H-pyrazole-4-yl)phenyl)-1,7-naphthyridine-3-carboxamide] | 100.0 | – | – | 8.85 | 9.15 | 9.15 | 65300 | –
CN(C)C(=O)Cn1cc(-c2ccc(-c3cnc(N)c4ncc(C(=O)NCC5CC5)cc34)cc2)cn1 [Compound 3.43, 8-Amino-N-(cyclopropylmethyl)-5-(4-(1-(2-(dimethylamino)-2-oxoethyl)-1H-pyrazole-4-yl)phenyl)-1,7-naphthyridine-3-carboxamide] | 100.0 | 15.7 | 1.89 | 9.06 | 9.30 | 9.70 | 68100 | –
COCCN(C)C(=O)c1cnc2c(N)ncc(-c3ccc(-c4cnn(CC(=O)N5CCN(C)CC5)c4)cc3)c2c1 [Compound 3.56, 8-amino-N-(2-methoxyethyl)-N-methyl-5-(4-(1-(2-(4-methylpiperazine-1-yl)-2-oxoethyl)-1H-pyrazole-4-yl)phenyl)-1,7-naphthyridine-3-carboxamide] | – | – | – | 8.97 | – | 7.86 | > 100000 | –
COCCN(C)C(=O)c1cnc2c(N)ncc(-c3ccc(-c4cnn(CC(=O)N(C)C)c4)cc3)c2c1 [Compound 3.55] | – | – | – | 8.91 | – | 8.19 | > 100000 | –
COCCn1cc(-c2ccc(-c3cnc(N)c4ncc(C(=O)N5CCN(C)CC5)cc34)cc2)cn1 [Compound 3.51, (8-amino-5-(4-(1-(2-methoxyethyl)-1H-pyrazole-4-yl)phenyl)-1,7-naphthyridin-3-yl)(4-methylpiperazine-1-yl)methanone] | 100.0 | 26.2 | 1.88 | 8.84 | 7.77 | 7.89 | > 100000 | –
CN1CCN(C(=O)Cn2cc(-c3ccc(-c4cnc(N)c5ncc(C(=O)N6CCN(C)CC6)cc45)cc3)cn2)CC1 [Compound 3.50, 2-(4-(4-(8-amino-3-(4-methylpiperazine-1-carbonyl)-1,7-naphthyridine-5-yl)phenyl)-1H-pyrazole-1-yl)-1-(4-methylpiperazine-1yl)ethan-1-one] | – | – | – | 8.69 | 8.42 | 7.58 | > 100000 | –
COCCN(C)C(=O)c1cnc2c(N)ncc(-c3ccc(-c4cnn(CCOC)c4)cc3)c2c1 [Compound 3.57, 8-amino-N-(2-methoxyethyl)-5-(4-(1-(2-methoxyethyl)-1H-pyrazole-4-yl)phenyl)-N-methyl-1,7-naphthyridine-3-carboxamide] | – | – | – | 8.64 | – | 7.77 | ~90000 | –
